This is an account of results in patent US8735398B2 (Bristol-Myers Squibb Company, priority 2009, dated 2014).

pEC50: −log10 of the molar value.

The subject of the first experiment is HCV 1b genotype. In words: HCV replicon assay (HCV-neo replicon cells, wild-type). The format is cell-based, Hepatitis C virus. The conditions noted are these: HCV 1b genotype replicon; class symbol; read-out: EC50 Range against HCV 1b. Summed up:
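Inhibition was tested in replicon-bearing cells, both wild-type HCV-neo and lines with NS5A resistance substitutions, using the O'Boyle et al. 2005 replicon method or luciferase-reporter formats.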
(In antiviral work, replicon cells carry a viral genome segment that copies itself.)
For `O=C(Nc1ccc(-c2cnc(-c3ccc(NC(=O)[C@@H]4CCCN4C(=O)[C@@H]4C[C@@H]5C[C@@H]5N4C(=O)c4ccc(Cl)cc4Cl)cc3)o2)cc1)[C@@H]1CCCN1C(=O)[C@@H]1C[C@@H]2C[C@@H]2N1C(=O)c1ccc(Cl)cc1Cl` [Example D-26, (S,S,S,2S,2′S)-N,N′-(4,4′-(oxazole-2,5-diyl)bis(4,1-phenylene))bis(1-((1S,3S,5S)-2-(2,4-dichlorobenzoyl)-2-azabicyclo[3.1.0]hexane-3-carbonyl)pyrrolidine-2-carboxamide)], the pEC50 was 5.00 to 6.00.

The same experiment, now with this note: HCV 1b genotype replicon; class symbols; read-out: EC50 Range against HCV 1b.
Take `O=C(Nc1ccc(-c2cnc(-c3ccc(NC(=O)[C@@H]4CCCN4C(=O)CN4CCCCC4)cc3)o2)cc1)[C@@H]1CCCN1C(=O)CN1CCCCC1` [XY-41, (2S,2′S)-N,N′-(1,3-oxazole-2,5-diyldi-4,1-phenylene)bis(1-(1-piperidinylacetyl)-2-pyrrolidinecarboxamide)]: the pEC50 was 5.00 to 6.00.

Still in this experiment, the particulars now being: HCV 1b genotype replicon; read-out: EC50 1b.
For `O=C(Nc1ccc(-c2cnc(-c3ccc(NC(=O)[C@@H]4CCCN4C(=O)[C@@H]4C[C@@H]5C[C@@H]5N4C(=O)c4ccc(Cl)cc4Cl)cc3)o2)cc1)[C@@H]1CCCN1C(=O)[C@@H]1C[C@@H]2C[C@@H]2N1C(=O)c1ccc(Cl)cc1Cl` [Example D-26, (S,S,S,2S,2′S)-N,N′-(4,4′-(oxazole-2,5-diyl)bis(4,1-phenylene))bis(1-((1S,3S,5S)-2-(2,4-dichlorobenzoyl)-2-azabicyclo[3.1.0]hexane-3-carbonyl)pyrrolidine-2-carboxamide)], the pEC50 was 5.48.

The experiment is the same for the next values; noted with them: Hepatitis C virus, HCV 1b genotype replicon; class symbol; read-out: EC50 Range against HCV 1b.
Take `CC(=O)O[C@H](C(=O)N1CCC[C@H]1C(=O)Nc1ccc(-c2ccc(-c3ccc(NC(=O)[C@@H]4CCCN4C(=O)[C@@H](OC(C)=O)c4ccccc4)cc3)o2)cc1)c1ccccc1`: the negative-log EC50 (pEC50) is 6.00 to 7.00.
As for `O=C(Nc1ccc(-c2nc[nH]c2-c2ccc(NC(=O)[C@@H]3CCCN3C(=O)Cc3ccccc3)cc2)cc1)[C@@H]1CCCN1C(=O)Cc1ccccc1` [OL-10, (2S,2′S)-N,N′-(1H-imidazole-4,5-diyldi-4,1-phenylene)bis(1-(phenylacetyl)-2-pyrrolidinecarboxamide)], the pEC50 was 7.00 to 8.34.
On the same count and under the same terms, under `Cn1nc(-c2ccc(NC(=O)[C@@H]3CCCN3C(=O)C3CC3)cc2)cc1-c1ccc(NC(=O)[C@@H]2CCCN2C(=O)C2CC2)cc1` [FY-4, (2S,2′S)-N,N′-((1-methyl-1H-pyrazole-3,5-diyl)di-4,1-phenylene)bis(1-(cyclopropylcarbonyl)-2-pyrrolidinecarboxamide)] stands 5.00 to 6.00.
Turning to `CO[C@H](C(=O)N1CCC[C@H]1C(=O)Nc1ccc(-c2cnc(-c3ccc(NC(=O)[C@@H]4CCCN4C(=O)[C@@H](OC)c4ccccc4)cc3)o2)cc1)c1ccccc1` [JG-19, (2S,2′S)-N,N′-(1,3-oxazole-2,5-diyldi-4,1-phenylene)bis(1-((2S)-2-methoxy-2-phenylacetyl)-2-pyrrolidinecarboxamide)], the negative logarithm of the EC50 (pEC50) was 7.00 to 8.34.
Still for that read-out and setting: under `O=C(Nc1ccc(-c2cc(-c3ccc(NC(=O)[C@@H]4CCCN4C(=O)c4ccncc4)cc3)[nH]n2)cc1)[C@@H]1CCCN1C(=O)c1ccncc1` [OL-34, (2S,2′S)-N,N′-(1H-pyrazole-3,5-diyldi-4,1-phenylene)bis(1-isonicotinoyl-2-pyrrolidinecarboxamide)] stands 5.00 to 6.00; under `C[C@](O)(C(=O)N1CCC[C@H]1C(=O)Nc1ccc(-c2ccc(-c3ccc(NC(=O)[C@@H]4CCCN4C(=O)[C@](C)(O)c4ccccc4)cc3)o2)cc1)c1ccccc1` [JG-58, (2S,2′S)-N,N′-(2,5-furandiyldi-4,1-phenylene)bis(1-((2R)-2-hydroxy-2-phenylpropanoyl)-2-pyrrolidinecarboxamide)], 7.00 to 8.34.
Still for that read-out and setting: to `COC(C(=O)N1CCC[C@H]1C(=O)Nc1ccc(-c2nnc(-c3ccc(NC(=O)[C@@H]4CCCN4C(=O)C(OC)c4ccccc4)cc3)o2)cc1)c1ccccc1` (stereo partly drawn) [RK-11, (2S,2′S)-N,N′-(1,3,4-oxadiazole-2,5-diyldi-4,1-phenylene)bis(1-(methoxy(phenyl)acetyl)-2-pyrrolidinecarboxamide)] belongs 6.00 to 7.00; to `O=C(Nc1ccc(-c2cc(-c3ccc(NC(=O)[C@@H]4CCCN4C(=O)c4cc5ccccc5o4)cc3)[nH]n2)cc1)[C@@H]1CCCN1C(=O)c1cc2ccccc2o1` [JG-40, (2S,2′S)-N,N′-(1H-pyrazole-3,5-diyldi-4,1-phenylene)bis(1-(1-benzofuran-2-ylcarbonyl)-2-pyrrolidinecarboxamide)], 6.00 to 7.00; to `O=C(Nc1ccc(-c2nc[nH]c2-c2ccc(NC(=O)[C@@H]3CCCN3C(=O)c3ccc4occc4c3)cc2)cc1)[C@@H]1CCCN1C(=O)c1ccc2occc2c1` [JG-52, (2S,2′S)-N,N′-(1H-imidazole-4,5-diyldi-4,1-phenylene)bis(1-(1-benzofuran-5-ylcarbonyl)-2-pyrrolidinecarboxamide)], 6.00 to 7.00.
Consider `C[C@H](NC(=O)[C@](C)(O)c1ccccc1)C(=O)Nc1ccc(-c2nnc(-c3ccc(NC(=O)[C@H](C)NC(=O)[C@](C)(O)c4ccccc4)cc3)o2)cc1` [RK-31, (2R,2′R)-N,N′-(1,3,4-oxadiazole-2,5-diylbis(4,1-phenyleneimino((2S)-1-oxo-1,2-propanediyl)))bis(2-hydroxy-2-phenylpropanamide)], for which the pEC50 is 6.00 to 7.00.
The same measure, in the same setting: to `COc1cccc2c(C(=O)N3CCC[C@H]3C(=O)Nc3ccc(-c4nc[nH]c4-c4ccc(NC(=O)[C@@H]5CCCN5C(=O)c5nc(Cl)cc6c(OC)cccc56)cc4)cc3)nc(Cl)cc12` [JG-50, (2S,2′S)-N,N′-(1H-imidazole-4,5-diyldi-4,1-phenylene)bis(1-((3-chloro-5-methoxy-1-isoquinolinyl)carbonyl)-2-pyrrolidinecarboxamide)] belongs 6.00 to 7.00; to `COc1cccc2c(C(=O)N3CCC[C@H]3C(=O)Nc3ccc(-c4ccc(-c5ccc(NC(=O)[C@@H]6CCCN6C(=O)[C@H](NC(C)=O)c6ccccc6)cc5)o4)cc3)nc(Cl)cc12` [JG-67, (2S)-1-((2R)-2-acetamido-2-phenylacetyl)-N-(4-(5-(4-((((2S)-1-((3-chloro-5-methoxy-1-isoquinolinyl)carbonyl)-2-pyrrolidinyl)carbonyl)amino)phenyl)-2-furyl)phenyl)-2-pyrrolidinecarboxamide], 7.00 to 8.34; to `CSCC[C@H](NC(=O)Cc1ccccc1)C(=O)Nc1ccc(-c2cnc(-c3ccc(NC(=O)[C@H](CCSC)NC(=O)Cc4ccccc4)cc3)o2)cc1` [JG-13, (2S,2′S)-N,N′-(1,3-oxazole-2,5-diyldi-4,1-phenylene)bis(4-(methylsulfanyl)-2-((phenylacetyl)amino)butanamide)], 6.00 to 7.00.
The same measure, in the same setting: to `COc1cccc2c(C(=O)N3CCC[C@H]3C(=O)Nc3ccc(-c4cc(-c5ccc(NC(=O)[C@@H]6CCCN6C(=O)c6nc(Cl)cc7c(OC)cccc67)cc5)[nH]n4)cc3)nc(Cl)cc12` [OL-41, (2S,2′S)-N,N′-(1H-pyrazole-3,5-diyldi-4,1-phenylene)bis(1-((3-chloro-5-methoxy-1-isoquinolinyl)carbonyl)-2-pyrrolidinecarboxamide)] belongs 7.00 to 8.34; to `C[C@H](NC(=O)OCc1ccccc1)C(=O)Nc1ccc(-c2nncn2-c2ccc(NC(=O)[C@H](C)NC(=O)OCc3ccccc3)cc2)cc1` [OL-16, [(1S)-1-methyl-2-oxo-2-[[4-[3-[4-[[(2S)-1-oxo-2-[[(phenylmethoxy)carbonyl]amino]propyl]amino]phenyl]-4H-1,2,4-triazol-4-yl]phenyl]amino]ethyl]-carbamic acid, phenylmethyl ester], 5.00 to 6.00.
As for `O=C(Nc1ccc(-c2ccc(-c3ccc(NC(=O)[C@@H]4CCCN4C(=O)c4nc(Cl)cc5ccccc45)cc3)o2)cc1)[C@@H]1CCCN1C(=O)c1nc(Cl)cc2ccccc12` [JG-61, (2S,2′S)-N,N′-(2,5-furandiyldi-4,1-phenylene)bis(1-((3-chloro-1-isoquinolinyl)carbonyl)-2-pyrrolidinecarboxamide)], the pEC50 was 5.00 to 6.00.

The same experiment, now with this note: Hepatitis C virus, HCV 1b genotype replicon; class symbols; read-out: EC50 Range against HCV 1b.
Turning to `COc1ccccc1CC(=O)N1CCC[C@H]1C(=O)Nc1ccc(-c2cnc(-c3ccc(NC(=O)[C@@H]4CCCN4C(=O)Cc4ccccc4OC)cc3)o2)cc1` [XY-35, (2S,2′S)-N,N′-(1,3-oxazole-2,5-diyldi-4,1-phenylene)bis(1-((2-methoxyphenyl)acetyl)-2-pyrrolidinecarboxamide)], the pEC50 was 6.00 to 7.00.
Still for that read-out and setting: to `COc1cccc2c(C(=O)N[C@@H](C)C(=O)Nc3ccc(-c4nnc(-c5ccc(NC(=O)[C@H](C)NC(=O)c6nc(Cl)cc7c(OC)cccc67)cc5)o4)cc3)nc(Cl)cc12` [RK-33, N,N′-(1,3,4-oxadiazole-2,5-diylbis(4,1-phenyleneimino((2S)-1-oxo-1,2-propanediyl)))bis(3-chloro-5-methoxy-1-isoquinolinecarboxamide)] belongs 6.00 to 7.00.
For the molecule `Cc1ccc(C)c(C(=O)N2CCC[C@H]2C(=O)Nc2ccc(-c3cnc(-c4ccc(NC(=O)[C@@H]5CCCN5C(=O)c5cc(C)ccc5C)cc4)o3)cc2)c1` [XY-43, (2S,2′S)-N,N′-(1,3-oxazole-2,5-diyldi-4,1-phenylene)bis(1-(2,5-dimethylbenzoyl)-2-pyrrolidinecarboxamide)], the pEC50 is 5.00 to 6.00.
Same read-out and setting: to `O=C(Nc1ccc(-c2cnc(-c3ccc(NC(=O)[C@@H]4CCCN4C(=O)CN4C(=O)OC[C@H]4c4ccccc4)cc3)o2)cc1)[C@@H]1CCCN1C(=O)CN1C(=O)OC[C@H]1c1ccccc1` [JR-21, (2S,2′S)-N,N′-(2,5-oxazolediyldi-4,1-phenylene)bis[1-[[(4R)-2-oxo-4-phenyl-3-oxazolidinyl]acetyl]-2-pyrrolidinecarboxamide]] belongs 5.00 to 6.00.
As for `CC(C)(C)O[C@@H]1C[C@@H](C(=O)Nc2ccc(-c3cnc(-c4ccc(NC(=O)[C@@H]5C[C@@H](OC(C)(C)C)CN5C(=O)C5CCCCC5)cc4)o3)cc2)N(C(=O)C2CCCCC2)C1` [XY-66, (2S,4R,2′S,4′R)-N,N′-(1,3-oxazole-2,5-diyldi-4,1-phenylene)bis(4-tert-butoxy-1-(cyclohexylcarbonyl)-2-pyrrolidinecarboxamide)], the pEC50 was 5.00 to 6.00.
Regarding `O=C(Nc1ccc(-c2cnc(-c3ccc(NC(=O)[C@@H]4C[C@@H](O)CN4C(=O)CC4CC4)cc3)o2)cc1)[C@@H]1C[C@@H](O)CN1C(=O)CC1CC1` [XY-44, (2S,4R,2′S,4′R)-N,N′-(1,3-oxazole-2,5-diyldi-4,1-phenylene)bis(1-(cyclopropylacetyl)-4-hydroxy-2-pyrrolidinecarboxamide)], the pEC50 was 5.00 to 6.00.

The experiment is the same for the next values; noted with them: Hepatitis C virus, HCV 1b genotype replicon; read-out: EC50 1b.
Consider `CO[C@H](C(=O)N1CCC[C@H]1C(=O)Nc1ccc(-c2cnc(-c3ccc(NC(=O)[C@@H]4CCCN4C(=O)[C@@H](OC)c4ccccc4)cc3)o2)cc1)c1ccccc1` [JG-19, (2S,2′S)-N,N′-(1,3-oxazole-2,5-diyldi-4,1-phenylene)bis(1-((2S)-2-methoxy-2-phenylacetyl)-2-pyrrolidinecarboxamide)], for which the pEC50 was 8.05.
The same measure, in the same setting: under `COc1cccc2c(C(=O)N3CCC[C@H]3C(=O)Nc3ccc(-c4ccc(-c5ccc(NC(=O)[C@@H]6CCCN6C(=O)[C@H](NC(C)=O)c6ccccc6)cc5)o4)cc3)nc(Cl)cc12` [JG-67, (2S)-1-((2R)-2-acetamido-2-phenylacetyl)-N-(4-(5-(4-((((2S)-1-((3-chloro-5-methoxy-1-isoquinolinyl)carbonyl)-2-pyrrolidinyl)carbonyl)amino)phenyl)-2-furyl)phenyl)-2-pyrrolidinecarboxamide] stands 8.28.

In general, pEC50 refers to −log10 of the EC50, conventionally taken in molar units.
